Test results published in ChEMBL document CHEMBL3507680, “University of Dundee, Gates Library screen for HepG2 cell viability”.

Experiment: Human HepG2 cell viability assay in 384 well format
Format: toxicity, cell-based
Parameters: dose 125 nL, time 70.5 hour; concentration not given beside the values
Details: HepG2 cells, read-out: Inhibition

Q: With `CCc1n[nH]c(C2CN(C(=O)c3cc(C(N)=O)cs3)CCO2)n1` (stereo not drawn) as the molecule, how does the cytotoxicity at 70.5 h read?
A: -12.1%

Q: With `Cc1ccc(CC(=O)N2CCCC(n3nc(C)cc3C)C2)cn1` (stereo not drawn) as the molecule, how does the cytotoxicity at 70.5 h read?
A: -9.71%

Q: Which cytotoxicity at 70.5 h does the source give for `CCc1nc(CN(C(C)=O)C2CCN(CCc3ccncc3)C2)no1` (stereo not drawn) here?
A: 11.6%

Q: Which cytotoxicity at 70.5 h does the source give for `COc1ccc(CC(=O)N2CCCC(n3nc(C)cc3C)C2)cc1` (stereo not drawn) here?
A: -3.95%

Q: For `Clc1ccccc1-c1nnc(CNCCn2cccn2)o1`, which cytotoxicity at 70.5 h is on record?
A: -8.51%

Q: Which cytotoxicity at 70.5 h does the source give for `Cc1n[nH]c(C2CN(C(=O)c3cc4c(s3)CCCC4)CCO2)n1` (stereo not drawn) here?
A: -4.81%

Q: For `CCCc1n[nH]c(C2CN(C(=O)c3cc4c(s3)CCC4)CCO2)n1` (stereo not drawn), which cytotoxicity at 70.5 h is on record?
A: -7.08%

Q: Which cytotoxicity at 70.5 h does the source give for `COc1ccc(CC(=O)N2CCCC(n3nc(C)cc3C)C2)cc1F` (stereo not drawn) here?
A: -9.02%

Q: Which cytotoxicity at 70.5 h does the source give for `CN1CCOC(CNCc2coc(-c3ccc(Cl)cc3)n2)C1` (stereo not drawn) here?
A: -2.49%

Q: For `CN1CCOC(CNCc2coc(-c3cccc(F)c3)n2)C1` (stereo not drawn), which cytotoxicity at 70.5 h is on record?
A: 36.2%

Q: Which cytotoxicity at 70.5 h does the source give for `Cc1nc(CSCCC(=O)NCc2ccncc2)cs1` here?
A: -6.44%

Q: Which cytotoxicity at 70.5 h does the source give for `CCN(CC1CCCO1)C(=O)Nc1cccc(Cl)c1OC` (stereo not drawn) here?
A: 24.1%

Q: Which cytotoxicity at 70.5 h does the source give for `Cc1cccc(NC2CCN(C(=O)Nc3cc(F)ccc3F)CC2)n1` here?
A: 0.351%

Q: With `Cc1cccc(NC2CCN(C(=O)Nc3ccc(F)cc3C)CC2)n1` as the molecule, how does the cytotoxicity at 70.5 h read?
A: -5.61%

Q: With `COc1cccc(CNCC2CN(C)CCO2)c1` (stereo not drawn) as the molecule, how does the cytotoxicity at 70.5 h read?
A: -7.17%

Q: For `COc1ccc(CNC(=O)CCSCc2csc(C)n2)cn1`, which cytotoxicity at 70.5 h is on record?
A: -4.07%

Q: Which cytotoxicity at 70.5 h does the source give for `COCCOc1ccc(NC(=O)C2CC(=O)N(C(C)C)C2)cn1` (stereo not drawn) here?
A: -4.64%

Q: With `COCCOc1ccc(NC(=O)C2CC(=O)N(CC3CC3)C2)cn1` (stereo not drawn) as the molecule, how does the cytotoxicity at 70.5 h read?
A: 19.3%

Q: Which cytotoxicity at 70.5 h does the source give for `CCN(CC)C(CNC(=O)c1c(C)noc1C(C)C)c1ccsc1` (stereo not drawn) here?
A: 0.627%

Q: For `COCCOc1ccc(NC(=O)C2CC(=O)N(C3CC3)C2)cn1` (stereo not drawn), which cytotoxicity at 70.5 h is on record?
A: -4.78%

Q: With `Cc1cc(NC(=O)NCC(C)N2CCOCC2)n(C)n1` (stereo not drawn) as the molecule, how does the cytotoxicity at 70.5 h read?
A: -6.14%

Q: For `CCOc1ccc(C#N)cc1NCC(=O)OC`, which cytotoxicity at 70.5 h is on record?
A: -2.6%

Q: For `CCOc1ccc(C#N)cc1NCC(=O)NC(=O)Nc1ccccc1`, which cytotoxicity at 70.5 h is on record?
A: -8.89%

Q: For `OC(CN1CCC(c2ccn[nH]2)CC1)c1ccc(F)cc1` (stereo not drawn), which cytotoxicity at 70.5 h is on record?
A: 26.4%

Q: Which cytotoxicity at 70.5 h does the source give for `OC(CN1CCC(c2ccn[nH]2)CC1)c1cc(F)ccc1F` (stereo not drawn) here?
A: -1.27%

Q: For `O=C(CCc1ccccc1)N1CC(n2cncn2)C1`, which cytotoxicity at 70.5 h is on record?
A: -7.88%

Q: For `CN1CCC(N(C)C(=O)c2cnc3c(cnn3C3CCCC3)c2)CC1`, which cytotoxicity at 70.5 h is on record?
A: -7.87%

Q: For `O=C(c1ccn(-c2ccc(F)cc2)n1)N1CCCC(n2ccnc2)C1` (stereo not drawn), which cytotoxicity at 70.5 h is on record?
A: -6.02%

Q: Which cytotoxicity at 70.5 h does the source give for `Cc1ccnc(NC(=O)c2[nH]nc(C(C)C)c2Br)c1` here?
A: 19.7%

Q: Which cytotoxicity at 70.5 h does the source give for `O=C(c1ccc(-n2cnnc2)cc1)N1CCCC(n2ccnc2)C1` (stereo not drawn) here?
A: -8.88%

Q: With `Cc1cccc(NC2CCN(C(=O)Nc3cn[nH]c3)CC2)n1` as the molecule, how does the cytotoxicity at 70.5 h read?
A: -6.92%

Q: Which cytotoxicity at 70.5 h does the source give for `Cc1cnn(CC2CCCN2Cc2nc(N)c3ccccc3n2)c1` (stereo not drawn) here?
A: 45.2%

Q: With `Cc1cnn(CC2CCCN2Cc2ncc(-c3ccc(F)cc3)o2)c1` (stereo not drawn) as the molecule, how does the cytotoxicity at 70.5 h read?
A: 24%

Q: Which cytotoxicity at 70.5 h does the source give for `CCC(O)CN1CCN(C(=O)c2cccn2Cc2cccnc2)CC1` (stereo not drawn) here?
A: 17.3%

Q: For `CCC(O)CN1CCN(C(=O)c2cccn2Cc2ccncc2)CC1` (stereo not drawn), which cytotoxicity at 70.5 h is on record?
A: 21.3%

Q: Which cytotoxicity at 70.5 h does the source give for `N#Cc1ccccc1N1CCCN(C(=O)CCc2cccs2)CC1` here?
A: -8.79%

Q: For `Fc1ccc(-c2nc(CN3CCCC3Cn3cncn3)co2)cc1F` (stereo not drawn), which cytotoxicity at 70.5 h is on record?
A: 17.9%

Q: For `N#Cc1ccccc1N1CCCN(C(=O)CCc2ccco2)CC1`, which cytotoxicity at 70.5 h is on record?
A: -5.97%

Q: For `Fc1cccc(-c2nc(CN3CCCC3Cn3cccn3)co2)c1` (stereo not drawn), which cytotoxicity at 70.5 h is on record?
A: 15.8%

Q: Which cytotoxicity at 70.5 h does the source give for `O=C(c1cccc2c1OCCO2)N1CCCC1c1noc(C2CC2)n1` (stereo not drawn) here?
A: -2.14%

Q: With `Cc1c(C(=O)NCC2CCS(=O)(=O)C2)cnn1-c1ccccc1` (stereo not drawn) as the molecule, how does the cytotoxicity at 70.5 h read?
A: -1.52%

Q: For `Cc1nc(CN2CCC(c3ccnn3CCO)CC2)oc1C`, which cytotoxicity at 70.5 h is on record?
A: 1.65%

Q: With `Cc1noc(C)c1CN1CCC(c2ccnn2CCO)CC1` as the molecule, how does the cytotoxicity at 70.5 h read?
A: -5.98%

Q: With `O=C(Cc1n[nH]c2ccccc12)N1CCCCC1Cn1cccn1` (stereo not drawn) as the molecule, how does the cytotoxicity at 70.5 h read?
A: 2.97%

Q: For `O=c1[nH]c(CCN2CCCC2Cn2cccn2)nc2ccccc12` (stereo not drawn), which cytotoxicity at 70.5 h is on record?
A: -9.61%

Q: With `Cc1nc(C2CCCN(C(=O)c3cc(-c4ccccc4)[nH]n3)C2)no1` (stereo not drawn) as the molecule, how does the cytotoxicity at 70.5 h read?
A: -3.98%

Q: Which cytotoxicity at 70.5 h does the source give for `Cc1noc2ncc(C(=O)N3CCCC3c3ccsc3)cc12` (stereo not drawn) here?
A: -1.73%

Q: Which cytotoxicity at 70.5 h does the source give for `CN(Cc1nc2ccccc2o1)C1CCCN(c2cccnn2)C1` (stereo not drawn) here?
A: 4.68%

Q: For `Cc1nc(C)n(CC2CCCCN2CC(=O)NC(C2CC2)C2CC2)n1` (stereo not drawn), which cytotoxicity at 70.5 h is on record?
A: 3.82%

Q: With `CCC(O)CN1CCN(C(=O)c2ccn(-c3ccccc3)n2)CC1` (stereo not drawn) as the molecule, how does the cytotoxicity at 70.5 h read?
A: 2.94%

Q: For `CCn1cnnc1CNC(=O)NC(C)c1ccccn1` (stereo not drawn), which cytotoxicity at 70.5 h is on record?
A: 9.12%

Q: With `CC(O)CN1CCN(C(=O)c2ccn(-c3ccccc3Cl)n2)CC1` (stereo not drawn) as the molecule, how does the cytotoxicity at 70.5 h read?
A: -2.57%

Q: For `CN(Cc1nnc(C2CC2)o1)C1CCCN(c2cccnn2)C1` (stereo not drawn), which cytotoxicity at 70.5 h is on record?
A: -3.05%

Q: With `CCOC(=O)c1sc2ccsc2c1CNC(=O)C(C)(C)C#N` as the molecule, how does the cytotoxicity at 70.5 h read?
A: -2.32%

Q: With `Cc1nc(C)n(C2CCCN(C(=O)c3ccc(NC4CC4)nc3)C2)n1` (stereo not drawn) as the molecule, how does the cytotoxicity at 70.5 h read?
A: -6.49%

Q: For `Nc1nc(CN2CCCC(Cn3cncn3)C2)nc2ccccc12` (stereo not drawn), which cytotoxicity at 70.5 h is on record?
A: 1.03%

Q: Which cytotoxicity at 70.5 h does the source give for `Cc1nnc(NCc2cccnc2N(C)C)c(C#N)c1C` here?
A: 2.49%

Q: For `Cc1cnc(CN(C)C2CCN(CCc3ccccn3)CC2)cn1`, which cytotoxicity at 70.5 h is on record?
A: 14.7%
